“Also recorded” adds a separate entry of the source.
Experiments:
[1] = Estimated saturation in 100% DMSO; assay type: physicochemical
Procedure: General Procedure. For Examples 2 through 7, all test compounds of interest were initially dissolved in 100% DMSO. Estimated saturation occurred at approximately 4 mM for ellagic acid dihydrate. The saturated solution was diluted 1:10 in 1× PBS; creating a 100× stock solution of 400 μM ellagic acid dihydrate. Working concentrations (1×), 4 μM, and more dilute concentrations of ellagic acid dihydrate were created by 1:10 dilutions into 0.1% DMSO. The resulting six dilutions ranged from 4 μM to 0.04 nM. Dose curves were analyzed using either Harmony software on the Operetta (Perkin Elmer) or Excel (Microsoft) for flow cytometry, which was performed on a BD Accuri (BD Biosciences).

glucose oxidase reaction = glucose oxidase reaction (Aspergillus niger, UniProt P13006); assay: Direct interaction with glucose, glucose oxidase based glucometer on serum; assay type: biochemical; details: incubated with serum at room temperature for five minutes or overnight at 37° C.
Chain of glucose oxidase reaction (P13006 17-605): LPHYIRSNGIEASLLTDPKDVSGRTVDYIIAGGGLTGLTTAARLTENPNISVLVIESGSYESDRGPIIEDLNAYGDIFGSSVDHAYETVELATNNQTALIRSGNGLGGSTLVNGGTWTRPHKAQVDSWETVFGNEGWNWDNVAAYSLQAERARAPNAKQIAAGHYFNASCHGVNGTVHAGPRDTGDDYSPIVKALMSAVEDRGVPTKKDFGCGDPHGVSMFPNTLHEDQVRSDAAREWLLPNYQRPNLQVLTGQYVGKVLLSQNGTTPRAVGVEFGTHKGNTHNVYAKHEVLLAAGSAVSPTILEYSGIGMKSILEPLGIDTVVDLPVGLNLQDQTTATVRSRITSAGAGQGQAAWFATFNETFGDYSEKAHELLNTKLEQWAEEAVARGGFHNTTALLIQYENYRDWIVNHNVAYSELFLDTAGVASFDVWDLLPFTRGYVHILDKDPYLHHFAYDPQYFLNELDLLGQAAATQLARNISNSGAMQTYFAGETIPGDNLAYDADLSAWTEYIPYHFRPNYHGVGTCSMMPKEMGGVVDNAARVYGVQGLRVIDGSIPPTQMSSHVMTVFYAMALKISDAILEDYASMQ
Procedure: Ellagic acid dihydrate was analyzed for direct interaction with glucose. A glucose oxidase based glucometer was used to measure serum glucose. Ellagic acid dihydrate was incubated with serum at room temperature for five minutes or overnight at 37° C. Upon testing the mixture, no inhibition of the glucose oxidase reaction was observed. Ellagic acid dihydrate is not believed to directly interact with glucose.

MEF cells [2] = assay: Glucose uptake, 2-NBDG labeling, flow cytometry, MEFs; assay type: cell-based, mouse
Procedure: Cellular assays were performed using mouse myoblast C2C12 cells and MEF cells. […] Increased glucose uptake was indicated as increasing signal of 2-NBDG ([…]) in cells. Glucose uptake assays were carried out in a final incubation volume of 50 μl consisting of, 2-NBDG), (100 μM) in 1× Phosphate Buffered Saline w/Ca+, Mg+ (PBS++). The same buffer was used for washing cells. Insulin was used as a positive control. All testing compounds were prepared in […] and diluted 1:100 for a final concentration of 0.1% DMSO (vehicle). Cells were culture to 70-90% confluence and then washed twice with PBS++. Cells were incubated for 30 minutes at 37° C. in PBS++. Nuclear stain, HCS CellMask stain (blue, Invitrogen), and/or testing compounds (ellagic acid dihydrate, insulin, or vehicle) were added. Cells were incubated for 30 min at 37° C. Cells were washed twice with PBS++and incubated with 2-NBDG for 10 minutes. Cells were washed thrice with PBS++and then imaged in PBS++. Alternatively, the final PBS wash was removed and cells were incubated with Accutase (Invitrogen) for 10 min at 37° C., neutralized with 10% FBS in 1× PBS, and analyzed by flow cytometry. An additional experiment was performed to measure glucose uptake in C2C12 cells exposed to metformin, insulin and ellagic acid dihydrate 2 (batch 2). FIG. 5C. Glucose uptake in ellagic acid dihydrate treated cell culture was measured and compared to glucose uptake under insulin or ellagic acid treatment. […] Flow cytometry results were run in triplicate with 1000 cells per batch.

MEF cells [3] = assay: Glucose uptake, 2-NBDG labeling, high-content imaging (Operetta), MEFs; assay type: cell-based, mouse
Procedure: Increased glucose uptake was indicated as increasing signal of 2-NBDG ([…]) in cells. Glucose uptake assays were carried out in a final incubation volume of 50 μl consisting of, 2-NBDG), (100 μM) in 1× Phosphate Buffered Saline w/Ca+, Mg+ (PBS++). The same buffer was used for washing cells. Insulin was used as a positive control. All testing compounds were prepared in 10% DMSO and diluted 1:100 for a final concentration of 0.1% DMSO (vehicle). Cells were culture to 70-90% confluence and then washed twice with PBS++. Cells were incubated for 30 minutes at 37° C. in PBS++. Nuclear stain, HCS CellMask stain (blue, Invitrogen), and/or testing compounds (ellagic acid dihydrate, insulin, or vehicle) were added. Cells were incubated for 30 min at 37° C. Cells were washed twice with PBS++and incubated with 2-NBDG for 10 minutes. Cells were washed thrice with PBS++and then imaged in PBS++. Alternatively, the final PBS wash was removed and cells were incubated with Accutase (Invitrogen) for 10 min at 37° C., neutralized with 10% FBS in 1× PBS, and analyzed by flow cytometry. An additional experiment was performed to measure glucose uptake in C2C12 cells exposed to metformin, insulin and ellagic acid dihydrate 2 (batch 2). FIG. 5C. Glucose uptake in ellagic acid dihydrate treated cell culture was measured and compared to glucose uptake under insulin or ellagic acid treatment. […] Flow cytometry results were run in triplicate with 1000 cells per batch.

## O.O.O=c1oc2c(O)c(O)cc3c(=O)oc4c(O)c(O)cc1c4c23 [ellagic acid dihydrate]
[1]
  Estimated saturation: approximately 4 mM
Glucose oxidase reaction
  inhibition of the glucose oxidase reaction: no inhibition
MEF cells [2]; 400 nM exposure, fibroblasts, FIG. 4B
  increased glucose uptake relative to vehicle treated cells: 47%
MEF cells [2]; MEFs, flow cytometry, 4 μM-0.04 nM
  dose effect for increasing glucose uptake: showed a dose effect
MEF cells [2]; MEFs, flow cytometry, Example 5, FIG. 6
  increase in glucose uptake compared with ellagic acid or insulin treatment: significantly greater increase in glucose uptake
MEF cells [2]; MEFs, flow cytometry, FIG. 4A
  glucose uptake (2-NBDG signal) relative to vehicle: significantly greater than vehicle treated
MEF cells [2]; fibroblasts, at most concentrations tested, significant at 4 nM-4 μM, dihydrate
  glucose uptake relative to insulin: significantly more glucose uptake relative to insulin; also recorded: exceeded the uptake induced by insulin
MEF cells [2]; in vitro conditions, summary statement
  glucose uptake per unit dose: increase in glucose uptake per unit dose
MEF cells [3]
  dose effect for increasing glucose uptake: showed a dose effect
  glucose uptake (signal of 2-NBDG) in comparison to vehicle: showed an increase in glucose uptake
MEF cells [3]; data not shown
  glucose uptake (2-NBDG signal) relative to vehicle treated or Insulin treated cells: significantly greater

Source: patent publication US20170368018A1, “USE OF ELLAGIC ACID DIHYDRATE IN PHARMACEUTICAL FORMULATIONS TO REGULATE BLOOD GLUCOSE LEVELS” (HALO LIFE SCIENCE, LLC, priority 2014, published 2017)
